Measurements: patent US6321750A, “Condom lubricants with zinc salts as anti-viral additives” (priority 1999, dated 2001)

Test system: HIV
Assay: HIV infectivity tests with zinc acetate 1.5% (diluted and undiluted viral stocks, p24 ELISA)
Assay type: cell-based, HIV-1
Excerpt: The tests described above, in Example 8, used an undiluted high-titer viral stock, which contained at least ten million infectious viral particles per ml. That concentration can be achieved in a laboratory only by special culturing, purification, and concentration techniques, and it is vastly higher than would actually occur in the ejaculate of an HIV-infected person (especially someone who is not in the end stages of the disease, and who might pose a significant risk of transmitting the virus to an unknowing sexual partner).
These tests used serial dilutions of the viral stocks, at ranges from 1:10 to 1:10,000. To create the 1:10 dilution, 500 μl of viral stock was mixed with 4.5 ml of RPMI medium. Subsequent dilutions added 9 ml of RPMI medium to 1 ml from the preceding dilution.
A 2 ml aliquot from each dilution was mixed with an equal volume of 3% ZnAc dissolved in sterile distilled water; after mixing, the zinc concentration was 5.3 mg/ml Zn. These mixtures were incubated for 2 hours, then diluted with culture medium at 1:30, 1:100, and 1:1000 to reduce the toxicity of the zinc to lymphocytes. Four ml of lymphocytes were mixed with 4 ml of each zinc/virus mixture. The zinc/virus/cell mixtures were incubated at 37° C. for 3 hours; zinc concentrations were 88, 27, and 2.7 μg/ml in the 30, 100, and 1000 dilutions.
Following the 3 hour incubation, the cells were washed twice in RPMI medium and resuspended in fresh medium containing 10% FCS. Each solution was inoculated (2 ml; estimated minimum 2×10^5 cells per well) into each of three wells in a 12-well plate and cultured for 27 days, with periodic sampling and measuring of p24 antigens.
Positive controls used 1:1000 dilutions of viral stock mixed with zinc-free RPMI. These controls were consistently highly infectious, even though their concentrations were 100× lower than the 1:10 mixtures in which infectivity was eliminated by zinc treatment. Other positive controls were tested at up to 100,000× dilutions; these were highly infective in two out of the three plates tested.
While carrying out the viral dilution tests, tests were also performed using 2 ml of 3% ZnAc solution in distilled water mixed with 2 ml aliquots of undiluted viral stock. The zinc/virus mixtures were incubated for 2 hours, diluted with RPMI at 1:100 and 1:1000 ratios, and mixed with lymphocytes for three hours; zinc concentrations were 27 and 2.7 μg/ml. The cells were washed twice, inoculated into 12 well plates as described above, and cultured for 27 days.

For Zinc acetate, the HIV infectivity (10×, 100×, 1000× diluted stocks, zinc/virus diluted 1:1000 (2.7 μg/ml Zn)) was “completely blocked infectivity”, the HIV infectivity (diluted stocks, zinc/virus diluted 1:100 (27 μg/ml Zn)) was “viral infectivity was completely blocked” and the HIV infectivity (diluted viral stocks, 1.5% zinc acetate 2 h) was “completely eliminated”. The HIV infectivity (diluted viral stocks, 1.5% zinc acetate 2 h, listed as ZnAc) was “completely eliminated the infectivity”, the “HIV infectivity (FIG. 4)” value (high-titer stocks, various concentrations of zinc acetate) was “either eliminated or suppressed” and the HIV infectivity (undiluted stock, zinc/virus diluted 1:100 (27 μg/ml Zn), 27 days) was “completely prevented infectivity”. The HIV infectivity (undiluted stock, zinc/virus diluted 1:1000 (2.7 μg/ml Zn), 27 days) was “delayed the onset of infection”.
